Measured values reported in US9862713B2, “Substituted bicyclic heteroaryl compounds as RXR agonists” (CONNEXIOS LIFE SCIENCES PVT. LTD., priority 2014, dated 2018).

How the values were obtained:
[1] = test system: MIA PaCa-2 cells; assay: MIA PaCa-2 cell growth (cell count); assay type: cell-based; details: 0.1 uM and higher (up to 10.0 uM); day 2, 4 and 6
Protocol: Cancer is characterized by uncontrolled cell growth. Any agent which can reduce the cellular growth will have high therapeutic potentials. […] MIA PaCa-2 cells (ATCC) were seeded in a 6-well plate (20,000 cells per well) in DMEM containing 25 mM glucose, 10% FBS, 2.5% horse serum in presence or absence of different concentrations of compound-40 as mentioned. Cells were harvested on day 2, day 4 and day 6, and cell numbers were measured. MIA PaCa-2 cells were grown with or without different concentrations of compound-40 (0.0, 0.1, 0.3, 1.0, 3.0 and 10.0 uM) and cell growth was measured by cell count at different time points (day 2, 4 and 6).

[2] = test system: MIA PaCa-2 cells; assay: BrdU incorporation assay in MIA PaCa-2 cells; assay type: cell-based; details: 3 uM
Protocol: Impact of compound-40 on cell proliferation was further evaluated by BrdU incorporation assay. MIA PaCa-2 cells were grown for 4 days in presence or absence of compound-40 (3 uM). After treatment with vehicle control or compound-40 (3 uM), cells were exposed to BrdU. BrdU incorporation was measured using a commercially available kit (Roche) as per manufacturer's protocol.

[3] = test system: ob/ob mice; assay: Effect of RXR agonist on ob/ob mice; assay type: in vivo; details: 3, 10 and 30 mg/kg, BID, po; 4 weeks
Protocol: The male ob/ob and lean mice were procured from Harlon laboratories, acclimatized for a week, were fed a standard laboratory diet. The lean control and the ob/ob mice were 16 weeks old at the start of the study and were randomized to either vehicle or drug (Compound 40, 3, 10 and 30 mg/kg, BID, po) treatment groups by body weight, fed glucose and glucose AUC during an oral glucose tolerance test. The treatment was continued for 4 weeks. Fed glucose and fast triglycerides (tail snip) were monitored weekly. At the end of week 4 of the treatment, Animals were sacrificed […] terminal measurement of fasting glycerol, free fatty acid, cholesterol, LDL levels.

[4] = test system: male ZDF rats; assay: Effect of RXR agonist on male ZDF rats; assay type: in vivo; details: 10 mg/kg, BID, po
Protocol: Five week old male ZDF rats from Charles River & age matched control rats were housed under temperature 22±3° C., relative humidity 50-70%, 12 hour light and 12 hour dark cycle with artificial fluorescent tubes. The animals were housed in a group of 3 in standard polypropylene cages with stainless steel top grill having facilities for pelleted food and drinking water in bottle. The animals were fed with normal chow diet (Provomi), Bisleri, commercially available mineral drinking water was provided ad libitum. The lean control and the male […] rats were randomized to either vehicle or drug (Compound 40, 10 mg/kg, BID, po) treatment groups by body weight, fed glucose and glucose. The treatment was continued for 8 weeks. Body weight, fasting and fed glucose and fast triglycerides (tail snip) were monitored weekly. At the end of week 8 of the treatment, glucose and insulin HbAlc levels were followed at different time intervals. Blood samples collected from tail nipping method HbAlc levels by DCA vantage (SIEMENS).
Measurement of Nerve conduction velocity: Nerve conduction velocity was measured using Electronic stimulator connected to AD Power Lab 8/30, AD instruments. Briefly animals were anaesthetized and three different electrodes (+ve, −ve and neutral) were connected from Bio amp to animal. +ve electrode was placed on front side of fourth finger on hind paw, −ve electrode was placed just above +ve electrode at a distance of 10 mm and neutral electrode was placed on abdomen region. Voltage at a rate of 5 mv with pulse width of 0.001 sec was provided on two different regions at a distance of 1 cm on sciatic nerve. Nerve conduction was recorded using Lab chart software in scope view panel. Latencies at two different points were measured by taking the mouse cursor at the beginning of peaks. […] Measurement of Hemodynamic Parameters by Using Millar MPVS System:
At the end of 22 weeks of treatment period animal were subjected to hemodynamic measurement using Millar MPVS system, briefly animal was anesthetized using urethane and all surgical procedure was done on thermal plate, both jugular vein and carotid artery was cannulated in which jugular vein was used for saline calibration whereas rat millar Cather was introduced into left ventricle through carotid artery was be used for recording the Pressure volume loop. Blood was withdrawn from the tail vein puncture by pricking with needle into pre-filled EDTA tubes, mix and placed on ice immediately, centrifuge at 10000 rpm for 10 minutes using cold centrifuge. The plasma separated was subjected for estimation of ANP, BNP, Osteprotegerin Using USCN kit and Serum urea and BUN using Robonik kit.

[5] = test system: Male Wistar rats; assay: Isoprenaline induced cardiac hypertrophy in rats; assay type: in vivo; details: 10 mg/kg, p.o., q.d., 11 weeks
Protocol: Male Wistar rats of fourteen weeks age were housed under controlled temperature 22±3° C., relative humidity 50-70%, 12 hour light and 12 hour dark cycle with artificial fluorescent tubes. Animals were acclimatized for seven days. On eight day animals were randomized based on their body weights and allotted into nine animals/group. Different groups into which animals allotted were G1: Vehicle control, G2: Isoprenaline control (5 mg/kg, s.c. twice a week) and G3: Isoprenaline (5 mg/kg, s.c. twice a week)+Compound 40 (10 mg/kg, p.o., q.d.). Treatment with Compound 40 (10 mpk) for G3 group was started one week prior to isoprenaline administration and both the treatments were continued for eleven weeks. The animals were monitored for daily feed consumption and weekly body weight throughout the study. At the end of treatment period (Week 11) five animals from each group were subjected to Cardiovascular hemodynamic assessment by Millar catheter using MPVS Ultra control interface connected to AD power lab, AD instruments. Different parameters measured were heart rate, stroke work, stroke volume, cardiac output, left ventricular systolic pressure, left ventricular diastolic pressure, left ventricular diastolic volume Immediately after hemodynamic estimation terminal blood from all the animals were collected followed by the collection of hearts. All the separated serum samples were used for estimation of several cardiac markers like ANP, BNP, CRP, LDH, CKN, CKMB and SGOT. Collected hearts were examined for histopathological changes and gene expression studies. All the numerical output was expressed as Mean±SEM, one way ANOVA followed by Dunnets' test using Graph pad prism software.

SMILES: CC1(C)CCC(C)(C)c2sc(N(CC3CC3)c3ccc(C(=O)O)cn3)nc21 [Compound 40, 6-[(Cyclopropylmethyl) (4,4,7,7-tetramethyl-4,5,6,7-tetrahydro-1,3-benzothiazol-2-yl)amino]pyridine-3-carboxylic acid]
- cell growth (cell count) [1]: significant reduction in cell growth
- BrdU incorporation ([2]; 4 days): significantly reduced
- BrdU incorporation in RXRa over-expressing MIA PaCa-2 ([2]; RXRa over-expressing cells): further reduced the BrdU incorporation
- LDL-c [3]: decreasing LDL-c
- prandial hyperglycemia (fed glucose) [3]: both an early onset and sustained control of prandial hyperglycemia
- total cholesterol [3]: significantly decreased total cholesterol
- CRP levels [4]: decreasing CRP levels
- HbAlc levels [4]: very significant improvement
- activity of SDH (glucose oxidation in muscle) [4]: significantly increased the activity of SDH
- fasting TG levels [4]: significantly reduces fasting TG levels
- fasting glucose [4]: significant control of Fasting glucose
- glucose disposal [4]: improves glucose disposal
- hyperinsulinemia (insulin levels) [4]: significantly reduced hyperinsulinemia
- levels of biomarkers of Cardio vascular risk [4]: improvement in levels of biomarkers of Cardio vascular risk
- prandial hyperglycemia (fed glucose) [4]: both an early onset and sustained control of prandial hyperglycemia
- Cardiac function ([4]; Millar MPVS hemodynamic measurement): Substantial improvement
- BUN levels ([4]; end of 22 weeks): Substantial decrease
- Serum Creatinine levels ([4]; end of 22 weeks): Substantial decrease
- hypertriglyceridemia ([4]; fasting TG during treatment and there after): does not cause hypertriglyceridemia
- Nerve conduction velocity (NCV) ([4]; sciatic nerve): Significant improvement
- absolute heart weight ([5]; isoprenaline 5 mg/kg, s.c. twice a week): substantial reduction
- Stroke volume (SV) ([5]; isoprenaline): significant improvement
- Stroke work (SW) ([5]; isoprenaline): significant improvement
- cardiac output ([5]; isoprenaline): improved
- ejection fraction ([5]; isoprenaline): improved
- heart rate ([5]; isoprenaline): improved
- thickness of the septum ([5]; isoprenaline): significant reduction
- thickness of the ventricular wall ([5]; isoprenaline): significant reduction
- ventricular refilling ([5]; isoprenaline): improvement in ventricular refilling
